In this experiment the test system is retinitis pigmentosa. In words: Subconjunctival injection of tazarotene microsphere suspension into a patient suffering from retinitis pigmentosa. It is filed as in vivo. The note with it: tazarotene 1 mg in poly(lactide-co-glycolide) microsphere suspension, for the duration of treatment. As to the method: A dose of tazarotene (1 mg) contained in the poly(lactide-co-glycolide) microsphere suspension of Example containing 1 is injected subconjunctivally into a patient suffering from retinitis pigmentosa.

Regarding `CCOC(=O)c1ccc(C#Cc2ccc3c(c2)C(C)(C)CCS3)nc1` [tazarotene], the vision result is “Maintenance of vision or a slowing of the progression of vision loss”.

The values above are taken from US20050003007A1, “Method of sterilization of polymeric microparticles” (priority 2003, published 2005).
